Measurements reported in patent publication US11576903B2, “Amorphous kinase inhibitor formulations and methods of use thereof” (Deciphera Pharmaceuticals, LLC, priority 2019, dated 2023).
In brackets after ≈: the same amount, converted by molar mass.

Assays:
[1] = Kinetic aqueous solubility at select pH; type: physicochemical; settings: aqueous medium, kinetic from dmso stock, 25° C.
Experimental: Solubility of a solid dispersion of amorphous Compound 1 (25%)/HPMCAS-HG as prepared in Example 1, at select pH values was evaluated.

[2] = Pharmacokinetic study after oral administration to rats; settings: rat, in vivo, 10 mg/kg (Compound 1 basis), oral suspension
Experimental: Studies comparing the pharmacokinetics of crystalline Compound 1 and solid dispersion of amorphous Compound 1 (25%) as prepared in Example 1 were conducted in rats. The dose in both studies were 10 mg/kg (Compound 1 basis). Rats were administered Crystalline Compound 1 as an oral suspension in a vehicle of 20% Captisol/0.4% HPMC at pH 2. Rats were administered amorphous Compound 1 as an oral suspension using in a 0.5% Methocel vehicle.

solubility kinetic ([1]; aqueous buffer, pH 6.5, aqueous): 1 µg/mL (≈ 1.96 µM)
solubility kinetic ([1]; simulated gastric fluid, pH 2, aqueous): 6 µg/mL (≈ 11.8 µM)
AUC(0-inf) [2]: 131 ng·h/mL
AUC(0-t) [2]: 111 ng·h/mL
Cmax [2]: 20.2 ng/mL
Tmax [2]: 1.67 h
half-life [2]: 8.76 h
SMILES: CCn1c(=O)c(-c2cc(NC(=O)Nc3ccccc3)c(F)cc2Br)cc2cnc(NC)cc21 [Crystalline Compound 1]
